Experiments:
Test in all cases: Bliss excess, mean over the matrix (fraction); higher = more synergy
[1] = test system: JHH-1 (Hepatocellular Carcinoma)
Summary of the method: (§1)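 After 24 hours at 37°C and 5% CO2 in 1536-well plates, cells in DMEM/F12 or RPMI plus 10% FBS received two-drug dose matrices for 72 hours. Viability came from CellTiter-Glo 2.0 luminescence and was scaled as inhibition, anchored at 0 by vehicle wells and at 1 by blank wells. Combination Emax is taken as the second-highest inhibition in the matrix, and Bliss excess as the observed combination effect less EA + EB − EA·EB, with EA and EB the single-agent effects.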

[2] = test system: NCI-H1623 (Lung Adenocarcinoma)
Summary of the method: as §1

[3] = test system: RMG-I (Ovarian Carcinoma)
Summary of the method: as §1

[4] = test system: Caov-3 (Ovarian Carcinoma)
Summary of the method: as §1

[5] = test system: CML-T1 (Chronic Myelogenous Leukemia)
Summary of the method: as §1

[6] = test system: NKM-1 (Acute Myeloid Leukemia)
Summary of the method: as §1

CHL-1 (Melanoma) = test system: CHL-1 (Melanoma)
Summary of the method: as §1

[7] = test system: LOUCY (T-Lymphoblastic Leukemia)
Summary of the method: as §1

[8] = test system: RL95-2 (Endometrial Carcinoma)
Summary of the method: as §1

[9] = test system: PANC-02-03 (Pancreatic Carcinoma)
Summary of the method: as §1

[10] = test system: FLO-1 (Esophageal Adenocarcinoma)
Summary of the method: as §1

[11] = test system: SK-MM-2 (Plasma Cell Myeloma)
Summary of the method: as §1

[12] = test system: NCI-H1563 (Lung Adenocarcinoma)
Summary of the method: as §1

[13] = test system: LAMA-84 (Chronic Myelogenous Leukemia)
Summary of the method: as §1

[14] = test system: Calu-6 (Non-Small Cell Lung Carcinoma)
Summary of the method: as §1

[15] = test system: SW684 (Other Solid Carcinomas)
Summary of the method: as §1

[16] = test system: OCI-AML5 (Acute Myeloid Leukemia)
Summary of the method: as §1

786-0 (Kidney Carcinoma) = test system: 786-0 (Kidney Carcinoma)
Summary of the method: as §1

[17] = test system: NCI-H196 (Small Cell Lung Carcinoma)
Summary of the method: as §1

HuO-3N1 (Osteosarcoma) = test system: HuO-3N1 (Osteosarcoma)
Summary of the method: as §1

Row | Structure (SMILES) | Bliss excess [1] | Bliss excess [2] | Bliss excess [3] | Bliss excess [4] | Bliss excess [5] | Bliss excess [6] | Bliss excess (CHL-1 (Melanoma)) | Bliss excess [7] | Bliss excess [8] | Bliss excess [9] | Bliss excess [10] | Bliss excess [11] | Bliss excess [12] | Bliss excess [13] | Bliss excess [14] | Bliss excess [15] | Bliss excess [16] | Bliss excess (786-0 (Kidney Carcinoma)) | Bliss excess [17] | Bliss excess (HuO-3N1 (Osteosarcoma))
1 | CCN(CCO)CCCOc1ccc2c(Nc3cc(CC(=O)Nc4cccc(F)c4)[nH]n3)ncnc2c1 [AZD2811] + C[C@@H]1COCCN1C2=NC(=NC(=C2)C3(CC3)[S@](=N)(=O)C)C4=C5C=CNC5=NC=C4 [AZD6738] (first compound max 1 µM, 7x7, partner max 10 µM) | -0.0574 | -0.0271 | -0.0734 | -0.0747 | 0.0199 | 0.0425 | -0.0344 | -0.0518 | -0.0873 | -0.101 | -0.0611 | -0.0732 | -0.0114 | -0.0175 | -0.0382 | -0.073 | -0.0299 | -0.0465 | -0.0655 | -0.0218
2 | Cc1cc2ncnn2cc1Nc1ncc2c(n1)n(C1CCOCC1)c(=O)n2C [AZD7648] + CCN(CCO)CCCOc1ccc2c(Nc3cc(CC(=O)Nc4cccc(F)c4)[nH]n3)ncnc2c1 [AZD2811] (first compound max 10 µM, 7x7, partner max 1 µM) | -0.0287 | -0.0311 | 0.0097 | -0.0523 | 0.069 | 0.0545 | 0.0203 | -0.043 | 0.0646 | 0.0163 | 0.0161 | -0.0115 | 0.0036 | 0.115 | 0.0268 | -0.027 | -0.0377 | 0.0259 | -0.0181 | -0.0184
3 | Cc1cc2ncnn2cc1Nc1ncc2c(n1)n(C1CCOCC1)c(=O)n2C [AZD7648] + C=CCn1c(=O)c2cnc(Nc3ccc(N4CCN(C)CC4)cc3)nc2n1-c1cccc(C(C)(C)O)n1 [AZD1775] (first compound max 10 µM, partner max 1 µM) | 0.001 | 0.0376 | 0.02 | -0.0869 | 0.0112 | -0.0556 | 0.014 | 0.0464 | -0.0629 | 0.0306 | -0.023 | -0.0214 | -0.0041 | 0.046 | -0.0282 | -0.017 | 0.0086 | 0.0502 | -0.0249 | -0.0205
4 | COc1cccc2c1C(=O)c1c(O)c3c(c(O)c1C2=O)C[C@@](O)(C(=O)CO)C[C@@H]3O[C@H]1C[C@H](N)[C@H](O)[C@H](C)O1 [Doxorubicin] + Cc1cc2ncnn2cc1Nc1ncc2c(n1)n(C1CCOCC1)c(=O)n2C [AZD7648] (first compound max 1 µM, 7x7, partner max 10 µM) | -0.0314 | 0.0258 | -0.0445 | 0.024 | 0.0824 | 0.0803 | 0.002 | 0.0893 | -0.0064 | 0.0001 | 0.027 | -0.0137 | 0.0572 | 0.121 | 0.0914 | -0.0211 | 0.174 | 0.082 | -0.0383 | -0.0523
5 | CC1(C)CCC(CN2CCN(c3ccc(C(=O)NS(=O)(=O)c4ccc(NCC5CCOCC5)c([N+](=O)[O-])c4)c(Oc4cnc5[nH]ccc5c4)c3)CC2)=C(c2ccc(Cl)cc2)C1 [Venetoclax] + C[C@@H](Nc1cc(F)cc(F)c1)c1cc(C(=O)N(C)C)cc2c(=O)cc(N3CCOCC3)oc12 [AZD8186] (first compound max 1 µM, 7x7, partner max 3 µM) | -0.0413 | -0.0215 | -0.0274 | -0.0548 | 0.0023 | 0.0937 | -0.0397 | 0.0146 | -0.0189 | -0.0527 | -0.0712 | 0.024 | 0.0389 | -0.0006 | -0.0446 | -0.0862 | 0.0529 | -0.0095 | -0.03 | 0.0158
6 | CN(C)CCCOc1ccc(-c2ccc3ncc4c(c3c2)n(C2CCOCC2)c(=O)n4C)cn1 [AZD0156] + C=CCn1c(=O)c2cnc(Nc3ccc(N4CCN(C)CC4)cc3)nc2n1-c1cccc(C(C)(C)O)n1 [AZD1775] (first compound max 1 µM, partner max 1 µM) | -0.0501 | -0.065 | -0.0545 | -0.0434 | -0.0271 | -0.0605 | -0.0427 | -0.0123 | -0.03 | -0.026 | 0.0285 | 0.0058 | -0.0549 | -0.037 | -0.0479 | -0.076 | -0.0359 | 0.0005 | -0.0791 | -0.0505
7 | CN(CCO)CC[C@H](CSc1ccccc1)Nc1ccc(S(=O)(=O)NC(=O)c2ccc(N3CCC([C@@H](O)c4ccccc4-c4ccc(Cl)cc4)CC3)cc2)cc1S(=O)(=O)C(F)(F)F [AZD4320] + Cn1cnc2c(F)c(Nc3ccc(Br)cc3Cl)c(C(=O)NOCCO)cc21 [Selumetinib] (first compound max 1 µM, 7x7, partner max 3 µM) | 0.0527 | 0.162 | -0.0401 | -0.0406 | -0.0155 | -0.0208 | -0.0218 | 0.0255 | 0.137 | -0.007 | 0.0109 | 0.0514 | 0.045 | 0.0207 | -0.0019 | 0.0194 | 0.0137 | -0.0187 | -0.0339 | -0.0194
8 | CC1(C)CCC(CN2CCN(c3ccc(C(=O)NS(=O)(=O)c4ccc(NCC5CCOCC5)c([N+](=O)[O-])c4)c(Oc4cnc5[nH]ccc5c4)c3)CC2)=C(c2ccc(Cl)cc2)C1 [Venetoclax] + Cn1cnc2c(F)c(Nc3ccc(Br)cc3Cl)c(C(=O)NOCCO)cc21 [Selumetinib] (first compound max 1 µM, 7x7, partner max 3 µM) | -0.0588 | -0.0046 | -0.0727 | -0.0295 | 0.0069 | 0.0456 | -0.0418 | 0.0179 | -0.0313 | -0.0386 | -0.0485 | 0.0187 | 0.0042 | -0.0157 | -0.0665 | -0.0631 | 0.111 | -0.0347 | -0.044 | -0.011
9 | Cc1c2c(nn1C)CSCc1cc(n(C)n1)CSc1cc(c3ccccc3c1)OCCCc1c(C(=O)O)n(C)c3c-2c(Cl)ccc13 [AZD5991] + C1CN(CCC1(C(=O)N[C@@H](CCO)C2=CC=C(C=C2)Cl)N)C3=NC=NC4=C3C=CN4 [Capivasertib] (first compound max 1 µM, 7x7, partner max 3 µM) | 0.0258 | 0.0471 | -0.0488 | -0.01 | -0.0081 | -0.0335 | 0.0092 | 0.0143 | 0.0001 | -0.037 | -0.0072 | -0.0186 | 0.0837 | 0.0007 | 0.0106 | -0.0298 | -0.0204 | -0.0189 | -0.0499 | 0.0122
10 | Cc1cc2ncnn2cc1Nc1ncc2c(n1)n(C1CCOCC1)c(=O)n2C [AZD7648] + C[C@@H]1COCCN1C2=NC(=NC(=C2)C3(CC3)[S@](=N)(=O)C)C4=C5C=CNC5=NC=C4 [AZD6738] (first compound max 10 µM, 7x7, partner max 10 µM) | 0.0354 | 0.0359 | 0.0557 | 0.0433 | -0.0465 | -0.0051 | 0.0093 | 0.0271 | 0.024 | 0.0561 | -0.0191 | 0.0022 | 0.0367 | -0.0284 | -0.018 | -0.0272 | -0.0209 | 0 | 0.0126 | 0.0042
11 | Cc1c2c(nn1C)CSCc1cc(n(C)n1)CSc1cc(c3ccccc3c1)OCCCc1c(C(=O)O)n(C)c3c-2c(Cl)ccc13 [AZD5991] + C[C@@H]1COCCN1C2=NC(=NC(=C2)C3(CC3)[S@](=N)(=O)C)C4=C5C=CNC5=NC=C4 [AZD6738] (first compound max 1 µM, 7x7, partner max 10 µM) | 0.106 | 0.0581 | 0.0575 | 0.0293 | -0.012 | 0.024 | 0.0789 | -0.0398 | -0.0023 | 0.0205 | -0.0301 | -0.0607 | 0.0224 | -0.0056 | 0.0282 | 0.0472 | -0.0011 | -0.0098 | 0.0443 | 0.0446
12 | C[C@@H]1COCCN1c1cc(C2([S@](C)(=N)=O)CC2)nc(-c2ccnc3[nH]ccc23)n1 [AZD6738] + O=C(c1cc(Cc2n[nH]c(=O)c3ccccc23)ccc1F)N1CCN(C(=O)C2CC2)CC1 [Olaparib] (first compound max 10 µM, 7x7, partner max 10 µM) | -0.0206 | -0.0325 | 0.0255 | -0.0231 | -0.0182 | -0.0366 | -0.0498 | -0.0284 | 0.0105 | 0.0287 | -0.0348 | -0.0084 | -0.0116 | 0.0233 | -0.0679 | -0.0144 | -0.0071 | 0.0473 | 0.0275 | -0.0071
13 | Cc1cc2ncnn2cc1Nc1ncc2c(n1)n(C1CCOCC1)c(=O)n2C [AZD7648] + CN(C)CCCOc1ccc(-c2ccc3ncc4c(c3c2)n(C2CCOCC2)c(=O)n4C)cn1 [AZD0156] (first compound max 10 µM, 7x7, partner max 1 µM) | 0.0063 | -0.0209 | -0.0322 | -0.0085 | -0.0092 | -0.0039 | 0.0169 | 0.0007 | 0.0161 | 0.0002 | -0.0665 | -0.0552 | -0.0164 | -0.0024 | 0.0024 | -0.056 | 0.0276 | 0.0224 | -0.0173 | -0.0416
14 | Cc1c2c(nn1C)CSCc1cc(n(C)n1)CSc1cc(c3ccccc3c1)OCCCc1c(C(=O)O)n(C)c3c-2c(Cl)ccc13 [AZD5991] + Cc1cc2ncnn2cc1Nc1ncc2c(n1)n(C1CCOCC1)c(=O)n2C [AZD7648] (first compound max 1 µM, 7x7, partner max 10 µM) | -0.0585 | 0.0374 | -0.0389 | -0.0436 | -0.0205 | -0.0265 | 0.0317 | -0.0479 | -0.0033 | -0.0151 | -0.0408 | 0.0087 | -0.0185 | -0.01 | -0.0338 | -0.0222 | 0.0059 | -0.0341 | -0.0431 | -0.0229

Source: the supplement of paper PMC11061612
